In PMC9026148, “Pre-Clinical Study Evaluating Novel Protein Phosphatase 2A Activators as Therapeutics for Neuroblastoma” (Cancers, 2022):

Experiments:
[1] = test system: SK-N-AS, SK-N-BE(2), SH-EP, WAC2, COA6, COA129 cells; assay: CellTiter 96 proliferation, long-term cell lines and PDX cells; assay type: cell-based, human; details: increasing doses, 24 h
Description: (§1) CellTiter 96® Aqueous One Solution Cell Proliferation assay (Promega, Madison, WI, USA) was used to examine proliferation, and alamarBlue® assay (Thermo Fisher Scientific, Inc.) was used to evaluate viability. Cells, concentrations ranging from 5 × 10^3 to 1.5 × 10^4, depending on cell type due to wide variation in growth characteristics between established cell lines and PDX cells, were plated in 96-well plates and treated with increasing doses of 792 or 1154 for 24 h. CellTiter 96® or alamarBlue® dye (10 µL) was added for proliferation and viability assays, respectively. A microplate reader (Epoch Microplate Spectrophotometer, BioTek Instruments, Winooski, VT) measured absorbance at 490 nm for CellTiter 96® and at 570 nm for alamarBlue®, using 600 nm as a reference. […] Experiments were completed with at least three biologic replicates, and data reported as fold change ± SEM.

MYCN = assay: Immunoblotting of MYCN in neuroblastoma cells; assay type: cell-based, human; details: 24 h
Description: Following treatment, cells were lysed on ice using radioimmunoprecipitation (RIPA) buffer with phosphatase inhibitors (P5726, Sigma Aldrich), protease inhibitors (P8340, Sigma Aldrich), and phenylmethanesulfonylfluoride (PMSF, P7626, Sigma Aldrich) for 60 min. Cell lysates were centrifuged at 17,000 rpm for 30 min at 4 °C. Pierce™ BCA Protein Assay (Thermo Fisher Scientific, Inc.) determined protein concentration and proteins were separated by electrophoresis on sodium dodecyl sulfate polyacrylamide (SDS-PAGE) gels. Expected size of the targeted proteins was confirmed using molecular weight markers (Precision Plus Protein Kaleidoscope, Bio-Rad, Hercules, CA, USA). […] Immunoblots were developed with Luminata Classico or Crescendo Western horseradish peroxidase substrate (EMD Millipore, Burlington, MA, USA). Either anti-vinculin or anti-β-actin (as available from manufacturer) served as an internal loading control. We performed densitometry of Western blots using ImageJ software (Ver 1.49, http://imagej.nih.gov/ij (accessed on 9 February 2022).

[2] = test system: SK-N-AS, SK-N-BE(2), SH-EP, WAC2, COA6, COA129 cells; assay: alamarBlue viability, long-term cell lines and PDX cells; assay type: cell-based, human; details: increasing doses, 24 h; all cell lines
Description: as §1
Supplemental Figure S5: Treatment of neuroblastoma cell lines with 792 or 1154 resulted in decreased viability. Neuroblastoma cells ( 1.5 x 104 for AS, BE, SH-EP, WAC, COA6; 3 x 105 for COA129) were plated in 96-well plates and treated with increasing doses of 792 or […]
viability following increasing doses of either 792 (A) or 1154 (B). Similarly, increasing […]
PDXs. Data reported as mean fold change ± SEM, and experiments were repeated with at least three biologic replicates. […]

[3] = Plasma levels after oral dose in mice; assay type: in vivo, mouse; details: male ICR mice, bolus oral dose 50 mg/kg in 1:1:8 DMA:Solutol:water; compared to DBK-1154
Description: Blood aliquots were collected via cardiac puncture (300 µL) sampling from anesthetized mice in tubes coated with lithium heparin, mixed gently, then kept on ice and centrifuged at 2500× g for 15 min at 4 °C, within 1 h of collection. The plasma was harvested and kept frozen at −70 °C until further processing.
The plasma samples were processed using protein precipitation and analyzed by LC-MS/MS. A plasma calibration curve was generated. Aliquots of drug-free plasma were spiked with the test articles at the specified concentration levels. The spiked plasma samples were processed together with the unknown plasma samples using the same procedure. The processed plasma samples were placed in the autosampler until the LC-MS/MS analysis, at which time peak areas were recorded, and the concentrations of the test articles in the unknown plasma samples were determined using the respective calibration curve. The reportable linear range of the assay was determined, along with the lower limit of quantitation (LLOQ).
Plots of plasma concentration of test articles, ATUX-792 and DBK-1154, vs. time are constructed and shown in Supplementary Figure S2.
levels compared to DBK -1154. Serum concentration after bolus oral dose of 50 mg/kg in
1:1:8 DMA:Solutol:water (3 animals per time point). Blood aliquots were collected via car- […]
quantitative bioanalysis. […]

[4] = SK-N-AS cells, increasing doses
[5] = SK-N-BE(2), SH-EP and WAC2 cells, 0, 10, 20 μM

SMILES: O=S(=O)(NC1CCCC(N2c3ccccc3CCc3ccccc32)C1O)c1ccc(OC(F)(F)F)cc1 (stereo not drawn) [DBK-1154]
- proliferation [1]: significantly decreased proliferation
- MYCN protein expression (MYCN; [4]): increase in MYCN expression
- MYCN protein expression (MYCN; [5]): decreased expression of MYCN
- viability [2]: significantly decreased viability

SMILES: O=S(=O)(N[C@H]1COC[C@@H](n2c3ccc(Cl)cc3c3cc(Cl)ccc32)[C@@H]1O)c1ccc(OC(F)(F)F)cc1 [ATUX-792]
- proliferation [1]: significantly decreased proliferation
- MYCN protein expression (MYCN; [4]): increase in MYCN expression
- MYCN protein expression (MYCN; [5]): decreased expression of MYCN
- viability [2]: significantly decreased viability
- oral bioavailability / plasma levels [3]: good oral bioavailability
